In patent publication EP0134302A1, “Pharmaceutical compositions for treating resistant bacteria including anaerobes” (Bristol-Myers Company, priority 1983, dated 1985):
Converted amounts (≈) assume the structure as drawn. “And” between values parts separate entries of the source, which are not always exact repeats. Identical values can stand only once. Like-named read-outs stand apart in the source and are kept apart here.

How the values were obtained:
C. freundii = experiment: microbe, parasite or virus in culture; format: cell-based
Proteus vulgaris = experiment: microbe, parasite or virus in culture; format: cell-based
B. fragilis = details: cited from earlier work
Clostridium perfringens = experiment: microbe, parasite or virus in culture; format: cell-based
P. aeruginosa = experiment: microbe, parasite or virus in culture; format: cell-based; details: Pseudomonas aeruginosa
Bacteroides fragilis = experiment: microbe, parasite or virus in culture; format: cell-based
S. aureus = experiment: microbe, parasite or virus in culture; format: cell-based
[1] = Blood concentrations of BL-P 2013 after oral administration; format: in vivo; details: mice; oral administration of doses of 25 to 100 mg./kg. of body weight
Providencia rettgeri = experiment: microbe, parasite or virus in culture; format: cell-based
Providencia stuartii = experiment: microbe, parasite or virus in culture; format: cell-based
Serratia marcescens = experiment: microbe, parasite or virus in culture; format: cell-based
Morganella morganii = experiment: microbe, parasite or virus in culture; format: cell-based
Enterobacter cloacae = experiment: microbe, parasite or virus in culture; format: cell-based
Enterobacter aerogenes = experiment: microbe, parasite or virus in culture; format: cell-based; details: Klebsiella aerogenes
[2] = Table 1, C. perfringens, 3 strains (first group), geometric mean, 2 tests, BL-P 2013 as K salt
[3] = Table 1, C. perfringens, 3 strains (second group), geometric mean, 2 tests, BL-P 2013 as K salt
[4] = Table 1, C. perfringens, 8 strains, geometric mean, 2 tests, BL-P 2013 as K salt
[5] = Table 3, C. perfringens, 1 strain
[6] = Table 3, C. perfringens, 2 strains, geometric mean
[7] = Table 3, C. perfringens, 4 strains, geometric mean
[8] = Table 3, C. perfringens, 6 strains, geometric mean

SMILES | MIC (Proteus vulgaris) | MIC (Clostridium perfringens; [2]) | MIC (Clostridium perfringens; [3]) | MIC (Clostridium perfringens; [4]) | MIC (Clostridium perfringens; [5]) | MIC (Clostridium perfringens; [6]) | MIC (Clostridium perfringens; [7]) | MIC (Clostridium perfringens; [8]) | MIC (P. aeruginosa) | MIC (S. aureus) | MIC (S. aureus; Staphylococcus aureus) | blood concentrations of BL-P 2013 [1] | further results
CC(C)(O/N=C(\C(=O)N[C@@H]1C(=O)N2C(C(=O)[O-])=C(C[n+]3ccccc3)CS[C@H]12)c1csc(N)n1)C(=O)O [Ceftazidime, reference compound] | 0.063 µg/mL (≈ 0.115 µM) | 0.04 µg/mL | 0.7 µg/mL | 3.3 µg/mL | 2 µg/mL (≈ 3.66 µM) | 5.7 µg/mL (≈ 10.4 µM) | 0.11 µg/mL (≈ 0.201 µM) | 0.1 µg/mL (≈ 0.183 µM) | 8 µg/mL (≈ 14.6 µM) | 8.6 µg/mL and 9.7 µg/mL | 8 µg/mL (≈ 14.6 µM) |  | MIC (C. freundii): 63 µg/mL (≈ 115 µM); activity against B. fragilis (B. fragilis; Wise et al. 1980): low activity; susceptibility of Bacteroides fragilis strains (Bacteroides fragilis): resistant
CC1(C)[C@H](C(=O)O)N2C(=O)C[C@H]2S1(=O)=O [CP-45,899, Penicillanic acid-1,1-dioxide] |  |  |  |  |  |  |  |  |  |  |  |  | synergism with ampicillin against B. fragilis (B. fragilis; Fass, Abstract No. 605, 1980): highly synergistic
C[C@]1(CCl)[C@H](C(=O)OC2OC(=O)c3ccccc32)N2C(=O)C[C@H]2S1(=O)=O (stereo partly shown) |  |  |  |  |  |  |  |  |  |  |  | Operative blood concentrations | 
C[C@]1(CCl)[C@H](C(=O)O)N2C(=O)C[C@H]2S1(=O)=O [BL-P 2013] | > 125 µg/mL | > 125 µg/mL | 89 µg/mL | > 120 µg/mL | > 32 µg/mL | > 32 µg/mL | 27 µg/mL (≈ 101 µM) | > 32 µg/mL | > 125 µg/mL | 73 µg/mL and 96 µg/mL and 85 µg/mL | 100 µg/mL (≈ 374 µM) | Operative blood concentrations | MIC (Providencia rettgeri): > 125 µg/mL; MIC (Providencia stuartii): > 125 µg/mL; MIC (Serratia marcescens): > 125 µg/mL; MIC (C. freundii; Citrobacter freundii): > 125 µg/mL; MIC (Morganella morganii): > 125 µg/mL; MIC (Enterobacter cloacae): > 125 µg/mL; MIC (Enterobacter aerogenes): > 125 µg/mL; MIC (Bacteroides fragilis; Bacteroides fragilis): 21 µg/mL (≈ 78.4 µM)
CC(C)(C)C(=O)OCOC(=O)[C@@H]1N2C(=O)C[C@H]2S(=O)(=O)[C@@]1(C)CCl |  |  |  |  |  |  |  |  |  |  |  | Operative blood concentrations | 
